EPA's ToxRefDB 2

Key:
[1] = test system: rat; conditions: Subchronic oral toxicity in rodents, fischer, Gavage/Intubation, dose end: 13 week, group: systemic, systemic / pathology microscopic / kidney / degeneration
[2] = test system: rat; conditions: Combined chronic toxicity/carcinogenicity, fischer, Inhalation, Whole-Body, dose end: 24 month, group: systemic
[3] = test system: mouse; conditions: Subchronic oral toxicity in rodents, B6C3F1, Gavage/Intubation, dose end: 13 week, group: systemic, systemic / pathology microscopic / liver / cytomegaly
[4] = test system: mouse; conditions: Carcinogenicity; b6c3f1; Oral; Gavage/Intubation; dose end: 103 week; group: systemic; systemic / pathology microscopic / kidney / [other] + systemic / pathology microscopic / kidney / degeneration + systemic / pathology …
[5] = test system: mouse; conditions: Subchronic oral toxicity in rodents, b6c3f1, Gavage/Intubation, dose end: 13 week, group: systemic, systemic / pathology microscopic / liver / [other] + systemic / pathology microscopic / liver / cytomegaly + systemic / pathology …
[6] = test system: mouse; conditions: Subchronic inhalation toxicity, other, Whole-Body, dose end: 13 week, group: systemic
[7] = test system: rat; conditions: Subchronic oral toxicity in rodents, fischer, Gavage/Intubation, dose end: 13 week, group: systemic, systemic / in life observation / body weight / body weight gain + systemic / pathology microscopic / kidney / [other] + systemic / pathology…
[8] = test system: rat; conditions: Carcinogenicity; fischer; Oral; Gavage/Intubation; dose end: 2 year; group: systemic; systemic / pathology microscopic / kidney / casts + systemic / pathology microscopic / kidney / degeneration + systemic / pathology …
[9] = test system: mouse; conditions: Combined chronic toxicity/carcinogenicity, other, Inhalation, Whole-Body, dose end: 24 month, group: systemic
[10] = test system: rat; conditions: Prenatal developmental toxicity study, sprague dawley, Oral, Gavage/Intubation, dose end: 15 GD
[11] = test system: rat; conditions: Subchronic inhalation toxicity, fischer, Whole-Body, dose end: 13 week, group: systemic
[12] = test system: rat; conditions: Subchronic oral toxicity in rodents, other, Feed, dose end: 13 week
[13] = test system: rat; conditions: Developmental neurotoxicity study; fischer; Oral; Feed; dose end: 114 PND; group: cannot be grouped; systemic / in life observation / body weight / offspring (pup) weight
[14] = test system: rat; conditions: Carcinogenicity; other; Oral; Feed; dose end: 80 week; group: systemic; systemic / in life observation / body weight / body weight + systemic / in life observation / clinical signs / anemia + systemic / in life …
[15] = test system: rat; conditions: Developmental neurotoxicity study; fischer; Injection; Subcutaneous; dose end: 21 PND; group: cannot be grouped; systemic / in life observation / body weight / offspring (pup) weight + systemic / in life observation / clinical signs / tremors
[16] = test system: mouse; conditions: Carcinogenicity, b6c3f1, Oral, Feed, dose end: 80 week, group: systemic
[17] = systemic / organ weight / liver / absolute + systemic / organ weight / liver / relative to body weight + systemic / pathology microscopic / …
[18] = systemic / in life observation / body weight / body weight + systemic / organ weight / liver / relative to body weight
[19] = systemic / pathology microscopic / liver / hepatoblastoma + systemic / pathology microscopic / liver / hepatocellular adenoma + systemic / …
[20] = group: developmental, developmental / developmental malformation / bone / supernumerary + systemic / in life observation / body weight / fetal weight
[21] = group: maternal, systemic / in life observation / body weight / body weight gain + systemic / in life observation / food consumption / food consumption
[22] = systemic / in life observation / body weight / body weight
[23] = group: maternal, reproductive / reproductive performance / mating / mating
[24] = group: systemic, systemic / organ weight / kidney / absolute + systemic / organ weight / kidney / relative to body weight + systemic / organ weight / liver…
[25] = systemic / pathology microscopic / liver / hyperplasia
[26] = systemic / pathology microscopic / liver / hyperplasia + systemic / pathology microscopic / liver / hepatocellular carcinoma + systemic / in…

Compound: Clc1ccc(Cl)cc1 [1,4-Dichlorobenzene]
- LEL [1]: 300 mg/kg/day
- LOAEL [1]: 300 mg/kg/day
- NEL [1]: 150 mg/kg/day
- NOAEL [1]: 150 mg/kg/day
- LOAEL [2, 17]: > 300 ppm
- NEL [2, 17]: 20 ppm
- NOAEL [2, 17]: ≥ 300 ppm
- LEL ([2]; systemic / pathology microscopic / nose / [other]): 75 ppm
- LEL [3]: 675 mg/kg/day
- LOAEL [3]: 675 mg/kg/day
- NEL [3]: 338 mg/kg/day
- NOAEL [3]: 338 mg/kg/day
- LEL [4]: 300 mg/kg/day
- LOAEL [4]: 300 mg/kg/day
- NEL [4]: < 300 mg/kg/day
- NOAEL [4]: < 300 mg/kg/day
- LEL [5]: 600 mg/kg/day
- LOAEL [5]: 600 mg/kg/day
- NEL [5]: < 600 mg/kg/day
- NOAEL [5]: < 600 mg/kg/day
- LEL [6, 18]: 25 ppm
- NEL [6, 18]: < 25 ppm
- NOAEL ([6]; systemic / organ weight / liver / absolute + systemic / organ weight / liver / relative to body weight + systemic / clinical chemistry / …): 120 ppm
- LOAEL ([6]; systemic / organ weight / liver / relative to body weight + systemic / organ weight / liver / absolute + systemic / pathology microscopic / …): 270 ppm
- LEL [7]: 300 mg/kg/day
- LOAEL [7]: 300 mg/kg/day
- NEL [7]: < 300 mg/kg/day
- NOAEL [7]: < 300 mg/kg/day
- LEL [8]: 150 mg/kg/day
- LOAEL [8]: 150 mg/kg/day
- NEL [8]: < 150 mg/kg/day
- NOAEL [8]: < 150 mg/kg/day
- LOAEL [9, 19]: > 300 ppm
- NOAEL [9, 19]: ≥ 300 ppm
- NEL ([9]; systemic / pathology microscopic / liver / hepatoblastoma + systemic / pathology microscopic / liver / hepatocellular carcinoma + systemic…): 20 ppm
- LEL ([9]; systemic / pathology microscopic / nose / metaplasia): 75 ppm
- LEL ([10]; group: developmental, developmental / developmental malformation / bone / supernumerary): 500 mg/kg/day
- LOAEL [10, 20]: > 1000 mg/kg/day
- NEL [10, 20]: 250 mg/kg/day
- NOAEL [10, 20]: ≥ 1000 mg/kg/day
- LEL [10, 21]: 500 mg/kg/day
- LOAEL [10, 21]: > 1000 mg/kg/day
- NEL [10, 21]: 250 mg/kg/day
- NOAEL [10, 21]: ≥ 1000 mg/kg/day
- LEL [11, 22]: 25 ppm
- NEL [11, 22]: < 25 ppm
- NOAEL ([11]; systemic / in life observation / body weight / body weight + systemic / organ weight / kidney / absolute + systemic / organ weight / kidney…): 120 ppm
- LOAEL ([11]; systemic / organ weight / kidney / absolute + systemic / organ weight / kidney / relative to body weight + systemic / pathology microscopic…): 270 ppm

Compound: O=C1C2(Cl)C3(Cl)C4(Cl)C(Cl)(Cl)C5(Cl)C3(Cl)C1(Cl)C5(Cl)C24Cl (configuration not stated) [Kepone]
- LEL [12, 23]: 1.25 mg/kg/day
- LOAEL [12, 23]: > 1.25 mg/kg/day
- NEL [12, 23]: < 1.25 mg/kg/day
- NOAEL [12, 23]: ≥ 1.25 mg/kg/day
- LEL [12, 24]: 1.25 mg/kg/day
- LOAEL [12, 24]: > 1.25 mg/kg/day
- NEL [12, 24]: < 1.25 mg/kg/day
- NOAEL [12, 24]: ≥ 1.25 mg/kg/day
- LEL [13]: 0.05 mg/kg/day
- LOAEL [13]: > 0.3 mg/kg/day
- NEL [13]: < 0.05 mg/kg/day
- NOAEL [13]: ≥ 0.3 mg/kg/day
- LEL [14]: 0.4 mg/kg/day
- LOAEL [14]: 0.4 mg/kg/day
- NEL [14]: < 0.4 mg/kg/day
- NOAEL [14]: < 0.4 mg/kg/day
- LEL [15]: 1 mg/kg/day
- LOAEL [15]: > 1 mg/kg/day
- NEL [15]: < 1 mg/kg/day
- NOAEL [15]: ≥ 1 mg/kg/day
- LOAEL [16, 25]: 3 mg/kg/day
- NOAEL [16, 25]: < 3 mg/kg/day
- LEL [16, 26]: 3 mg/kg/day
- NEL [16, 26]: < 3 mg/kg/day
